Laboratory results taken from the NIST ThermoML archive (doi:10.1016/j.jct.2013.01.006).
Numbers after ± are expanded uncertainties.

Details: Liquid, Vibrating tube method

F/C=C/C(F)(F)F [trans-1,3,3,3-tetrafluoropropene]
Details	mass density [kg/m3]
283.55 K, 99990 kPa	1403.02 ± 1.8
283.56 K, 30000 kPa	1295.8 ± 0.59
283.56 K, 40000 kPa	1316.15 ± 0.69
283.56 K, 50000 kPa	1334.15 ± 0.82
283.56 K, 60000 kPa	1350.35 ± 0.99
283.56 K, 69990 kPa	1365.2 ± 1.2
283.56 K, 79990 kPa	1378.71 ± 1.4
283.56 K, 90000 kPa	1391.26 ± 1.6
283.57 K, 1000 kPa	1211.68 ± 0.52
283.57 K, 3000 kPa	1219.58 ± 0.5
283.57 K, 5000 kPa	1227.04 ± 0.49
283.57 K, 10000 kPa	1243.89 ± 0.48
283.57 K, 15000 kPa	1258.79 ± 0.48
283.57 K, 20000 kPa	1272.23 ± 0.51
283.57 K, 25000 kPa	1284.48 ± 0.55
293.41 K, 1000 kPa	1180.6 ± 0.55
293.41 K, 3000 kPa	1189.81 ± 0.53
293.41 K, 5000 kPa	1198.39 ± 0.51
293.41 K, 10000 kPa	1217.4 ± 0.49
293.41 K, 15000 kPa	1234.07 ± 0.49
293.41 K, 20000 kPa	1248.82 ± 0.5
293.41 K, 25000 kPa	1262.23 ± 0.53
293.41 K, 30000 kPa	1274.5 ± 0.57
293.41 K, 40000 kPa	1296.38 ± 0.67
293.41 K, 50000 kPa	1315.5 ± 0.79
293.41 K, 60000 kPa	1332.69 ± 0.94
293.41 K, 69990 kPa	1348.45 ± 1.1
293.41 K, 79990 kPa	1362.63 ± 1.3
293.41 K, 100010 kPa	1387.95 ± 1.7
293.42 K, 90000 kPa	1375.74 ± 1.5
303.38 K, 1000 kPa	1149.74 ± 0.65
303.38 K, 3000 kPa	1160.58 ± 0.59
303.39 K, 5000 kPa	1170.47 ± 0.55
303.39 K, 10000 kPa	1192.27 ± 0.51
303.39 K, 15000 kPa	1210.87 ± 0.5
303.39 K, 20000 kPa	1227.2 ± 0.51
303.39 K, 25000 kPa	1241.85 ± 0.52
303.39 K, 30000 kPa	1255.15 ± 0.56
303.39 K, 40000 kPa	1278.68 ± 0.64
303.39 K, 60000 kPa	1317.3 ± 0.9
303.4 K, 50000 kPa	1299.13 ± 0.76
303.4 K, 70000 kPa	1333.74 ± 1.1
303.4 K, 80010 kPa	1348.59 ± 1.3
303.4 K, 90000 kPa	1362.33 ± 1.5
303.4 K, 100000 kPa	1375.04 ± 1.6
313.33 K, 1000 kPa	1112.39 ± 0.71
313.33 K, 3000 kPa	1125.51 ± 0.65
313.34 K, 5000 kPa	1137.25 ± 0.6
313.34 K, 10000 kPa	1162.32 ± 0.54
313.35 K, 15000 kPa	1183.22 ± 0.51
313.35 K, 20000 kPa	1201.24 ± 0.5
313.35 K, 25000 kPa	1217.24 ± 0.52
313.36 K, 30000 kPa	1231.65 ± 0.54
313.36 K, 40000 kPa	1256.89 ± 0.62
313.36 K, 80000 kPa	1330.76 ± 1.2
313.36 K, 90000 kPa	1345.06 ± 1.4
313.36 K, 99990 kPa	1358.3 ± 1.6
313.37 K, 50000 kPa	1278.66 ± 0.72
313.37 K, 60000 kPa	1297.92 ± 0.85
313.37 K, 69990 kPa	1315.13 ± 1.1
323.14 K, 1000 kPa	1074.03 ± 0.83
323.15 K, 3000 kPa	1090.3 ± 0.76
323.15 K, 5000 kPa	1104.41 ± 0.67
323.15 K, 10000 kPa	1133.63 ± 0.58
323.15 K, 15000 kPa	1157.19 ± 0.53
323.15 K, 20000 kPa	1177.23 ± 0.51
323.15 K, 25000 kPa	1194.71 ± 0.51
323.15 K, 30000 kPa	1210.33 ± 0.53
323.15 K, 40000 kPa	1237.43 ± 0.6
323.15 K, 50000 kPa	1260.55 ± 0.69
323.15 K, 60000 kPa	1280.78 ± 0.81
323.15 K, 69990 kPa	1299.16 ± 1
323.15 K, 80000 kPa	1315.46 ± 1.2
323.15 K, 90000 kPa	1330.39 ± 1.3
323.15 K, 100000 kPa	1344.16 ± 1.5
333.06 K, 3000 kPa	1051.57 ± 0.91
333.06 K, 5000 kPa	1068.99 ± 0.76
333.07 K, 10000 kPa	1103.45 ± 0.64
333.07 K, 15000 kPa	1130.26 ± 0.56
333.07 K, 20000 kPa	1152.47 ± 0.53
333.07 K, 25000 kPa	1171.67 ± 0.51
333.08 K, 30000 kPa	1188.58 ± 0.52
333.08 K, 40000 kPa	1217.68 ± 0.57
333.08 K, 50000 kPa	1242.22 ± 0.66
333.09 K, 60000 kPa	1263.59 ± 0.77
333.09 K, 70000 kPa	1282.87 ± 1
333.1 K, 79990 kPa	1299.88 ± 1.1
333.1 K, 89990 kPa	1315.41 ± 1.3
333.1 K, 99990 kPa	1329.71 ± 1.5
343.06 K, 3000 kPa	1007.98 ± 1.2
343.07 K, 5000 kPa	1030.29 ± 0.91
343.07 K, 10000 kPa	1071.6 ± 0.71
343.07 K, 15000 kPa	1102.25 ± 0.6
343.07 K, 20000 kPa	1127.03 ± 0.54
343.07 K, 25000 kPa	1148.05 ± 0.52
343.07 K, 30000 kPa	1166.47 ± 0.51
343.07 K, 40000 kPa	1197.69 ± 0.55
343.07 K, 50000 kPa	1223.79 ± 0.64
343.07 K, 60000 kPa	1246.3 ± 0.74
343.07 K, 70000 kPa	1266.4 ± 0.99
343.08 K, 79990 kPa	1284.18 ± 1.1
343.08 K, 90000 kPa	1300.35 ± 1.2
343.08 K, 100000 kPa	1315.2 ± 1.4
352.97 K, 3000 kPa	957.49 ± 1.6
352.97 K, 60000 kPa	1229.3 ± 0.71
352.97 K, 70000 kPa	1250.62 ± 0.97
352.97 K, 79990 kPa	1269.19 ± 1.1
352.97 K, 89990 kPa	1285.98 ± 1.2
352.97 K, 99990 kPa	1301.43 ± 1.4
352.98 K, 5000 kPa	987.78 ± 1.1
352.98 K, 15000 kPa	1073.64 ± 0.65
352.98 K, 20000 kPa	1101.36 ± 0.57
352.98 K, 25000 kPa	1124.45 ± 0.53
352.98 K, 30000 kPa	1144.41 ± 0.51
352.98 K, 40000 kPa	1177.85 ± 0.54
352.98 K, 50000 kPa	1205.56 ± 0.61
352.99 K, 10000 kPa	1038.43 ± 0.82
362.93 K, 3000 kPa	894.35 ± 2.5
362.93 K, 5000 kPa	939.3 ± 1.5
362.94 K, 10000 kPa	1003.24 ± 0.96
362.94 K, 15000 kPa	1044.15 ± 0.72
362.94 K, 20000 kPa	1075.24 ± 0.6
362.94 K, 25000 kPa	1100.62 ± 0.54
362.94 K, 30000 kPa	1122.31 ± 0.51
362.95 K, 40000 kPa	1158.16 ± 0.53
362.95 K, 50000 kPa	1187.53 ± 0.58
362.95 K, 60000 kPa	1212.48 ± 0.68
362.95 K, 70010 kPa	1234.72 ± 0.95
362.95 K, 80000 kPa	1254.07 ± 1
362.96 K, 90000 kPa	1271.47 ± 1.1
362.96 K, 99990 kPa	1287.46 ± 1.3
